Assays:
[1] = test system: clinical isolates of methicillin-resistant S. aureus; assay: MIC against clinical isolates from cystic fibrosis patients; assay type: cell-based; settings: n=20 methicillin-resistant clinical isolates; CAMHB
Balb/c mice = assay: toxicity profile in mice, intraperitoneal; assay type: in vivo, mouse; settings: Balb/c mice n=3, i.p.; very mild toxicity after 1 h, recovered after 24 h
[2] = test system: clinical isolates of P. aeruginosa; assay: MIC against clinical isolates from cystic fibrosis patients; assay type: cell-based; settings: n=20 clinical isolates, CAMHB
[3] = test system: P. aeruginosa (Schroeter) Migula (ATCC 27853); assay: P. aeruginosa-induced bacterial peritonitis model; assay type: in vivo, Balb/c mice; settings: 15 mg/kg i.p. single dose, n=10, 7 days, p <0.001

Compound	S. aureus MICrange [1]	well tolerated intraperitoneal dose (MTD) (Balb/c mice)	P. aeruginosa MIC50 ([2]; 30% MDR)	P. aeruginosa MIC90 [2]	survival hazard ratio [HR] [3]
CN[C@H](CC(C)C)C(=O)N[C@H]1C(=O)N[C@@H](CC(N)=O)C(=O)N[C@H]2C(=O)N[C@H]3C(=O)N[C@H](C(=O)N[C@H](C(=O)O)c4cc(O)cc(O)c4-c4cc3ccc4O)[C@H](O)c3ccc(c(Cl)c3)Oc3cc2cc(c3O[C@@H]2O[C@H](CO)[C@@H](O)[C@H](O)[C@H]2O[C@H]2C[C@](C)(N)[C@H](O)[C@H](C)O2)Oc2ccc(cc2Cl)[C@H]1O [Vancomycin]	0.5 to 1.4 µM	–	–	–	–
Colistin	–	15 mg/kg	≤ 0.2 µM	0.4 µM	0.040
